Results published in PubChem BioAssay (NCI).
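These data come from cells grown in 96-well plates and exposed to compound for 48 hours at five concentrations. GI50 = concentration required for 50% inhibition of growth. At the TGI there is no net growth.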

Key:
Assay in all cases: NCI anticancer screen, dose series, 48 h
[1] = tested on: SR leukemia
[2] = tested on: MALME-3M melanoma
[3] = tested on: UACC-62 melanoma
[4] = tested on: OVCAR-5 ovarian
[5] = tested on: RXF 393 renal
[6] = tested on: COLO 205 colon
[7] = tested on: EKVX NSCLC
[8] = tested on: UACC-257 melanoma
[9] = tested on: SN12C renal
[10] = tested on: HS 578T breast
[11] = tested on: K-562 leukemia
[12] = tested on: HT29 colon
[13] = tested on: UO-31 renal
[14] = tested on: NCI-H460 lung
[15] = tested on: SK-MEL-28 melanoma
[16] = tested on: CCRF-CEM leukemia
[17] = tested on: OVCAR-8 ovarian
[18] = tested on: NCI-H23 lung
[19] = tested on: SNB-75 CNS
[20] = tested on: HCT-116 colon
[21] = tested on: ACHN renal
[22] = tested on: SF-539 CNS
[23] = tested on: OVCAR-3 ovarian
[24] = tested on: BT-549 breast
[25] = tested on: IGROV1 ovarian
[26] = tested on: U251 CNS
[27] = tested on: MDA-MB-435
[28] = tested on: SK-MEL-5 melanoma
[29] = tested on: MDA-MB-231 breast
[30] = tested on: T-47D breast
[31] = tested on: M14 melanoma
[32] = tested on: HCC-2998 colon
[33] = tested on: CAKI-1 renal
[34] = tested on: SW-620 colon
[35] = tested on: NCI/ADR-RES ovarian
[36] = tested on: OVCAR-4 ovarian
[37] = tested on: HL-60(TB) leukemia
[38] = tested on: 786-0 renal
[39] = tested on: KM12 colon
[40] = tested on: MOLT-4 leukemia
[41] = tested on: MCF7 breast
[42] = tested on: LOX IMVI melanoma
[43] = tested on: TK-10 renal
[44] = tested on: RPMI-8226 leukemia
[45] = tested on: DU-145 prostate
[46] = tested on: SF-295 CNS
[47] = tested on: NCI-H522 lung
[48] = tested on: PC-3 prostate
[49] = tested on: SNB-19 CNS
[50] = tested on: SK-OV-3 ovarian
[51] = tested on: SK-MEL-2 melanoma
[52] = tested on: A549 NSCLC
[53] = tested on: HOP-92 NSCLC
[54] = tested on: HCT-15 colon
[55] = tested on: SF-268 CNS
[56] = tested on: HOP-62 NSCLC
[57] = tested on: A498 renal
[58] = tested on: NCI-H226 lung

CCOc1ccc(NC(=O)c2cc3ccccc3cc2O)cc1
GI50 [1]: 22.8 µM
TGI [1]: > 100 µM
GI50 [2]: 39.7 µM
TGI [2]: > 100 µM
GI50 [3]: 57.4 µM
TGI [3]: > 100 µM
GI50 [4]: > 100 µM
TGI [4]: > 100 µM
GI50 [5]: 19 µM
TGI [5]: 40.2 µM
GI50 [6]: > 100 µM
TGI [6]: > 100 µM
GI50 [7]: > 100 µM
TGI [7]: > 100 µM
GI50 [8]: > 100 µM
TGI [8]: > 100 µM
GI50 [9]: > 100 µM
TGI [9]: > 100 µM
GI50 [10]: 59.8 µM
TGI [10]: > 100 µM
GI50 [11]: 52.5 µM
TGI [11]: > 100 µM
GI50 [12]: > 100 µM
TGI [12]: > 100 µM
GI50 [13]: 49.3 µM
TGI [13]: > 100 µM
GI50 [14]: > 100 µM
TGI [14]: > 100 µM
GI50 [15]: > 100 µM
TGI [15]: > 100 µM
GI50 [16]: 17.9 µM
TGI [16]: 41.7 µM
GI50 [17]: 47.8 µM
TGI [17]: > 100 µM
GI50 [18]: 45.9 µM
TGI [18]: > 100 µM
GI50 [19]: 34.9 µM
TGI [19]: > 100 µM
GI50 [20]: 71.2 µM
TGI [20]: > 100 µM
GI50 [21]: 49.9 µM
TGI [21]: > 100 µM
GI50 [22]: 33.2 µM
TGI [22]: > 100 µM
GI50 [23]: > 100 µM
TGI [23]: > 100 µM
GI50 [24]: 42 µM
TGI [24]: > 100 µM
GI50 [25]: 74 µM
TGI [25]: > 100 µM
GI50 [26]: 45.9 µM
TGI [26]: > 100 µM
GI50 [27]: > 100 µM
TGI [27]: > 100 µM
GI50 [28]: > 100 µM
TGI [28]: > 100 µM
GI50 [29]: 53.8 µM
TGI [29]: > 100 µM
GI50 [30]: > 100 µM
TGI [30]: > 100 µM
GI50 [31]: 93.4 µM
TGI [31]: > 100 µM
GI50 [32]: > 100 µM
TGI [32]: > 100 µM
GI50 [33]: > 100 µM
TGI [33]: > 100 µM
GI50 [34]: > 100 µM
TGI [34]: > 100 µM
GI50 [35]: 51.3 µM
TGI [35]: > 100 µM
GI50 [36]: > 100 µM
TGI [36]: > 100 µM
GI50 [37]: 22.3 µM
TGI [37]: > 100 µM
GI50 [38]: 28.4 µM
TGI [38]: 74.5 µM
GI50 [39]: > 100 µM
TGI [39]: > 100 µM
GI50 [40]: > 100 µM
TGI [40]: > 100 µM
GI50 [41]: > 100 µM
TGI [41]: > 100 µM
GI50 [42]: 58.1 µM
TGI [42]: > 100 µM
GI50 [43]: 74.8 µM
TGI [43]: > 100 µM
GI50 [44]: 38.9 µM
TGI [44]: > 100 µM
GI50 [45]: > 100 µM
TGI [45]: > 100 µM
GI50 [46]: 34.6 µM
TGI [46]: > 100 µM
GI50 [47]: 59.1 µM
TGI [47]: > 100 µM
GI50 [48]: > 100 µM
TGI [48]: > 100 µM
GI50 [49]: 41.2 µM
TGI [49]: > 100 µM
GI50 [50]: 27.8 µM
TGI [50]: > 100 µM
GI50 [51]: 76.7 µM
TGI [51]: > 100 µM
GI50 [52]: > 100 µM
TGI [52]: > 100 µM
GI50 [53]: 11.7 µM
TGI [53]: 38.5 µM
GI50 [54]: > 100 µM
TGI [54]: > 100 µM
GI50 [55]: 64.8 µM
TGI [55]: > 100 µM
GI50 [56]: 27.7 µM
TGI [56]: 81.5 µM
GI50 [57]: 86.4 µM
TGI [57]: > 100 µM
GI50 [58]: 64.3 µM
TGI [58]: > 100 µM
